Data: the NIST ThermoML archive (doi:10.1016/j.jct.2015.08.033)
± gives the expanded uncertainty stated by the source.

Assay: mn = molality of the nth substance listed, in mol/kg
Conditions: 100 kPa, Liquid; for speed of sound: Frequency=3 MHz, Sing-around technique in a fixed-path interferometer; for mass density: Vibrating tube method

## O=S(=O)([O-])C(F)(F)F.O=S(=O)([O-])C(F)(F)F.[Mg+2] [magnesium triflate] + CC(=O)N(C)C
298.15 K, m1 = 0.009142
  speed of sound: 1456.4 ± 1.3 m/s
  mass density: 938.272 ± 0.45 kg/m3
298.15 K, m1 = 0.01469
  speed of sound: 1456.7 ± 1.3 m/s
  mass density: 939.459 ± 0.45 kg/m3
298.15 K, m1 = 0.02251
  speed of sound: 1457 ± 1.3 m/s
  mass density: 941.134 ± 0.45 kg/m3
298.15 K, m1 = 0.03194
  speed of sound: 1457.4 ± 1.3 m/s
  mass density: 943.119 ± 0.44 kg/m3
298.15 K, m1 = 0.04489
  speed of sound: 1457.9 ± 1.3 m/s
  mass density: 945.817 ± 0.43 kg/m3
298.15 K, m1 = 0.05714
  speed of sound: 1458.3 ± 1.3 m/s
  mass density: 948.308 ± 0.43 kg/m3
298.15 K, m1 = 0.07138
  speed of sound: 1458.9 ± 1.3 m/s
  mass density: 951.266 ± 0.43 kg/m3
298.15 K, m1 = 0.08889
  speed of sound: 1459.5 ± 1.3 m/s
  mass density: 954.777 ± 0.43 kg/m3
298.15 K, m1 = 0.1071
  speed of sound: 1460 ± 1.3 m/s
  mass density: 958.463 ± 0.42 kg/m3
298.15 K, m1 = 0.1341
  speed of sound: 1460.7 ± 1.3 m/s
  mass density: 963.77 ± 0.42 kg/m3
303.15 K, m1 = 0.009142
  speed of sound: 1436.7 ± 1.3 m/s
  mass density: 933.667 ± 0.46 kg/m3
303.15 K, m1 = 0.01469
  speed of sound: 1436.9 ± 1.3 m/s
  mass density: 934.86 ± 0.45 kg/m3
303.15 K, m1 = 0.02251
  speed of sound: 1437.3 ± 1.3 m/s
  mass density: 936.55 ± 0.45 kg/m3
303.15 K, m1 = 0.03194
  speed of sound: 1437.8 ± 1.3 m/s
  mass density: 938.53 ± 0.44 kg/m3
303.15 K, m1 = 0.04489
  speed of sound: 1438.3 ± 1.3 m/s
  mass density: 941.246 ± 0.43 kg/m3
303.15 K, m1 = 0.05714
  speed of sound: 1438.8 ± 1.3 m/s
  mass density: 943.72 ± 0.43 kg/m3
303.15 K, m1 = 0.07138
  speed of sound: 1439.4 ± 1.3 m/s
  mass density: 946.705 ± 0.43 kg/m3
303.15 K, m1 = 0.08889
  speed of sound: 1440.1 ± 1.3 m/s
  mass density: 950.211 ± 0.43 kg/m3
303.15 K, m1 = 0.1071
  speed of sound: 1440.7 ± 1.3 m/s
  mass density: 953.905 ± 0.42 kg/m3
303.15 K, m1 = 0.1341
  speed of sound: 1441.5 ± 1.3 m/s
  mass density: 959.1 ± 0.41 kg/m3
308.15 K, m1 = 0.009142
  speed of sound: 1416.9 ± 1.3 m/s
  mass density: 929.056 ± 0.46 kg/m3
308.15 K, m1 = 0.01469
  speed of sound: 1417.2 ± 1.3 m/s
  mass density: 930.249 ± 0.45 kg/m3
308.15 K, m1 = 0.02251
  speed of sound: 1417.7 ± 1.3 m/s
  mass density: 931.947 ± 0.45 kg/m3
308.15 K, m1 = 0.03194
  speed of sound: 1418.2 ± 1.3 m/s
  mass density: 933.932 ± 0.44 kg/m3
308.15 K, m1 = 0.04489
  speed of sound: 1418.8 ± 1.3 m/s
  mass density: 936.655 ± 0.43 kg/m3
308.15 K, m1 = 0.05714
  speed of sound: 1419.3 ± 1.3 m/s
  mass density: 939.134 ± 0.44 kg/m3
308.15 K, m1 = 0.07138
  speed of sound: 1419.9 ± 1.3 m/s
  mass density: 942.126 ± 0.43 kg/m3
308.15 K, m1 = 0.08889
  speed of sound: 1420.7 ± 1.3 m/s
  mass density: 945.637 ± 0.43 kg/m3
308.15 K, m1 = 0.1071
  speed of sound: 1421.3 ± 1.3 m/s
  mass density: 949.338 ± 0.41 kg/m3
308.15 K, m1 = 0.1341
  speed of sound: 1422.3 ± 1.3 m/s
  mass density: 954.5 ± 0.41 kg/m3
313.15 K, m1 = 0.009142
  speed of sound: 1397.2 ± 1.3 m/s
  mass density: 924.433 ± 0.46 kg/m3
313.15 K, m1 = 0.01469
  speed of sound: 1397.6 ± 1.3 m/s
  mass density: 925.632 ± 0.46 kg/m3
313.15 K, m1 = 0.02251
  speed of sound: 1398.1 ± 1.3 m/s
  mass density: 927.333 ± 0.45 kg/m3
313.15 K, m1 = 0.03194
  speed of sound: 1398.6 ± 1.3 m/s
  mass density: 929.324 ± 0.44 kg/m3
313.15 K, m1 = 0.04489
  speed of sound: 1399.3 ± 1.3 m/s
  mass density: 932.054 ± 0.44 kg/m3
313.15 K, m1 = 0.05714
  speed of sound: 1399.9 ± 1.3 m/s
  mass density: 934.538 ± 0.44 kg/m3
313.15 K, m1 = 0.07138
  speed of sound: 1400.6 ± 1.3 m/s
  mass density: 937.537 ± 0.43 kg/m3
313.15 K, m1 = 0.08889
  speed of sound: 1401 ± 1.3 m/s
  mass density: 941.054 ± 0.43 kg/m3
313.15 K, m1 = 0.1071
  speed of sound: 1401.9 ± 1.3 m/s
  mass density: 944.772 ± 0.42 kg/m3
313.15 K, m1 = 0.1341
  speed of sound: 1403.2 ± 1.3 m/s
  mass density: 950 ± 0.41 kg/m3
318.15 K, m1 = 0.009142
  speed of sound: 1377.7 ± 1.3 m/s
  mass density: 919.8 ± 0.46 kg/m3
318.15 K, m1 = 0.01469
  speed of sound: 1378.1 ± 1.3 m/s
  mass density: 921.007 ± 0.46 kg/m3
318.15 K, m1 = 0.02251
  speed of sound: 1378.6 ± 1.3 m/s
  mass density: 922.714 ± 0.45 kg/m3
318.15 K, m1 = 0.03194
  speed of sound: 1379.2 ± 1.3 m/s
  mass density: 924.71 ± 0.45 kg/m3
318.15 K, m1 = 0.04489
  speed of sound: 1379.9 ± 1.3 m/s
  mass density: 927.445 ± 0.44 kg/m3
318.15 K, m1 = 0.05714
  speed of sound: 1380.6 ± 1.3 m/s
  mass density: 929.945 ± 0.44 kg/m3
318.15 K, m1 = 0.07138
  speed of sound: 1381.3 ± 1.3 m/s
  mass density: 932.941 ± 0.43 kg/m3
318.15 K, m1 = 0.08889
  speed of sound: 1382.1 ± 1.3 m/s
  mass density: 936.462 ± 0.42 kg/m3
318.15 K, m1 = 0.1071
  speed of sound: 1382.8 ± 1.3 m/s
  mass density: 940.1 ± 0.42 kg/m3
318.15 K, m1 = 0.1341
  speed of sound: 1384.2 ± 1.3 m/s
  mass density: 945.4 ± 0.42 kg/m3
